The target in one assay is T1, fMet-Leu-Phe receptor (Homo sapiens, UniProt P21462).
T1 sequence (P21462 whole entry): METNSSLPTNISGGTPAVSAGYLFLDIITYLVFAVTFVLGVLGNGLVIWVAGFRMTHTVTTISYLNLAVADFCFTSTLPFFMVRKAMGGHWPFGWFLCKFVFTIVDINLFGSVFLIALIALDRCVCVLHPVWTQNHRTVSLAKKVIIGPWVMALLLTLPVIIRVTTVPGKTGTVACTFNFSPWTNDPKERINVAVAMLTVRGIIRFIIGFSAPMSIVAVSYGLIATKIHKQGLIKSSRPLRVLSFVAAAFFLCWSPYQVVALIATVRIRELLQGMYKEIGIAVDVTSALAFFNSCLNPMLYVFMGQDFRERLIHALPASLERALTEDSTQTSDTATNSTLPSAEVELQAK
Briefly: formyl peptide receptor binders – dose response (AID 519). It is filed as functional.

The target of a further assay is Albumin (Bos taurus, UniProt P02769). Briefly: Counterscreen for inhibitors of T-cell receptor (TCR)-CD3 interaction: Fluorescence-based biochemical high throughput dose response assay to identify inhibitors of T-cell receptor (TCR)-CD3 interaction using a TAMRA-labeled BSA probe. It is filed as functional. (In general: The purpose of a counterscreen is to sort out artefacts and off-target activity.)
Sequence of Albumin (P02769 whole entry): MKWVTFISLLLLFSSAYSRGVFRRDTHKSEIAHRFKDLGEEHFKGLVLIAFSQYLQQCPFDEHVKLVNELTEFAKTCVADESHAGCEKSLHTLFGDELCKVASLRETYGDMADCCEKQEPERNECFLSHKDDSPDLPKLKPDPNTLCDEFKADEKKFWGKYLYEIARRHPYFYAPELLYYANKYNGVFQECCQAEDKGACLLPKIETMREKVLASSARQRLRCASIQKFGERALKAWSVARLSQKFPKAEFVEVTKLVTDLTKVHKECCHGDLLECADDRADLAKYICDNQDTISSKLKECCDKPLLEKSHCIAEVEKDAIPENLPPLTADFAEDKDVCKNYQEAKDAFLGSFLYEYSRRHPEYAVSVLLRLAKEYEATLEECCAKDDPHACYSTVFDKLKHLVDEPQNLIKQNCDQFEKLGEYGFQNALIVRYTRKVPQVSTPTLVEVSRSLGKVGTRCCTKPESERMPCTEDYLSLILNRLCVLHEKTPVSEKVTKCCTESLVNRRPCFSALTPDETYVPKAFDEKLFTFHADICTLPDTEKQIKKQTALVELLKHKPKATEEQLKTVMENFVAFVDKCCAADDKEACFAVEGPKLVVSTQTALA

The target of another assay is Cytochrome P450 2C9 (Homo sapiens, UniProt P11712).
Sequence of Cytochrome P450 2C9 (P11712 whole entry): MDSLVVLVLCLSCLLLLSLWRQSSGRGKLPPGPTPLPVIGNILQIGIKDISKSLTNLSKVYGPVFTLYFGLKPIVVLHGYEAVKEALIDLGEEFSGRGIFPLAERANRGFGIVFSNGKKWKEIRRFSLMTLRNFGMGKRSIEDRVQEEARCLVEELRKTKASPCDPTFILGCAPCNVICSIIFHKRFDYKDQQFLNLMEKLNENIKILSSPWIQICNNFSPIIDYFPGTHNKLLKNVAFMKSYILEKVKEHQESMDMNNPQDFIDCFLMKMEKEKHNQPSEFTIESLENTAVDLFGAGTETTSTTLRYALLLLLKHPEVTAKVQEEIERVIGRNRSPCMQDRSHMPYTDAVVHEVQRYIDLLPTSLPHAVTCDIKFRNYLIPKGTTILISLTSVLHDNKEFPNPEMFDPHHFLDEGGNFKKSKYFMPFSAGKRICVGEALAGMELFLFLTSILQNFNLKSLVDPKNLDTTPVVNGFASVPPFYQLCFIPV
Another assay deals with Cytochrome P450 2C19 (Homo sapiens, UniProt P33261). The assay is described as follows: Cytochrome panel assay with activity outcomes. Panel member name: p450-cyp2c19 Compounds with AC50 equal or less than 10 uM are considered active. It is filed as functional. The settings on record: read-out: AC50.
Sequence of Cytochrome P450 2C19 (P33261 whole entry): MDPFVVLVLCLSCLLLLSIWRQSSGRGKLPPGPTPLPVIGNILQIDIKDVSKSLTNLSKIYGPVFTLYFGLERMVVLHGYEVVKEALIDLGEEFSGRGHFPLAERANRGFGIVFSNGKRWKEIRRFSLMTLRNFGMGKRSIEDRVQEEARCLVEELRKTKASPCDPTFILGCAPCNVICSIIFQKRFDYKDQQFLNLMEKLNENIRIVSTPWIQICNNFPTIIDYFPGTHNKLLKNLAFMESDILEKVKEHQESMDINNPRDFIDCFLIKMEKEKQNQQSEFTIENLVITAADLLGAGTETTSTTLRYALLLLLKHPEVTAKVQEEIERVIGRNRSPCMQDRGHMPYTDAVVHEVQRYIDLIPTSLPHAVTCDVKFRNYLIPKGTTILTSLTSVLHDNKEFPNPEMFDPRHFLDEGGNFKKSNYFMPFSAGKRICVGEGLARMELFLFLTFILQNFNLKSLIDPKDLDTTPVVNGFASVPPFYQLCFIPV
Assay [1] concerns the target Induced myeloid leukemia cell differentiation protein Mcl-1 (Homo sapiens, UniProt Q07820). It is filed as functional.
Assay [2] in a line: fluconazole-exposed Candida albicans growth modulators – fluorescence, retest, confirmation (AID 2467). It is filed as functional, cell-based.
Assay [3] is described as follows: NIH3T3 cell viability loss – ATP luminescence, mouse fibroblasts, counter-screen, dose response (AID 2010).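 Note: cells exposed to compound for about 90 hours before reading.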 It is filed as functional, cell-based.
Assay [4] in a line: Trypanosoma cruzi growth suppression in host cells – NIH3T3 host cells, beta-gal luminescence, confirmation (AID 2044).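 Note: intracellular parasites grown in NIH/3T3 mouse fibroblasts as host cells; luminescent beta-galactosidase reporter signal from transgenic T. cruzi replicating inside host cells; inhibitors lower the luminescence signal.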 The assay is classed as functional, cell-based.
Assay [5] is described as follows: NIH-3T3 fibroblast cytotoxicity, dose response, cytotoxicity control, cell-based, fluorescence, Alamar Blue, secondary assay (AID 2327).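 Note: NIH-3T3 mouse fibroblasts cultured with fluconazole at 8 µg/mL.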 The assay is classed as functional. For orientation: Alamar Blue is a resazurin reagent that responds to reducing activity.
A further assay deals with INS1. Briefly: INS-1E survival protection against cytokine death – cell-based, luminescence, retest, dose response (AID 449756).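 Note: cell death triggered by IL-1 beta plus TNF-alpha plus IFN-gamma mixture; protective hits raise ATP signal compared with cytokine alone wells.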 It is filed as functional. The following applies: Rattus norvegicus.
A further assay concerns HeLa. The assay is described as follows: viability loss in HeLa cells – cell-based, ATP luminescence, cherry-pick samples, cytotoxicity control, dose response (AID 687004). The assay is classed as functional. The settings on record: Homo sapiens.
A short description of assay [6]: T. cruzi growth inhibition in host cells, dose response, cell-based, plate reader, dry powder, set 2 (AID 652275). The assay is classed as functional.
The nature of assay [7]: P. falciparum Dd2 growth inhibitors, dose response, SYBR Green, cherry-picked samples (AID 1159567). The assay is classed as functional, cell-based.
For assay [8], the target named is T2, Oxysterols receptor LXR-beta (Homo sapiens, UniProt P55055).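 Note: agonist activity at LXR measured by a cell-based luminescence readout across a dose range, run as a counterscreen for daf-12 agonists; HEK293 cells with Gal4-LXR fusion and GAL4-driven luciferase reporter; potency for activation of Gal4-LXR reporter so compounds are agonists.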
T2 sequence (P55055 whole entry): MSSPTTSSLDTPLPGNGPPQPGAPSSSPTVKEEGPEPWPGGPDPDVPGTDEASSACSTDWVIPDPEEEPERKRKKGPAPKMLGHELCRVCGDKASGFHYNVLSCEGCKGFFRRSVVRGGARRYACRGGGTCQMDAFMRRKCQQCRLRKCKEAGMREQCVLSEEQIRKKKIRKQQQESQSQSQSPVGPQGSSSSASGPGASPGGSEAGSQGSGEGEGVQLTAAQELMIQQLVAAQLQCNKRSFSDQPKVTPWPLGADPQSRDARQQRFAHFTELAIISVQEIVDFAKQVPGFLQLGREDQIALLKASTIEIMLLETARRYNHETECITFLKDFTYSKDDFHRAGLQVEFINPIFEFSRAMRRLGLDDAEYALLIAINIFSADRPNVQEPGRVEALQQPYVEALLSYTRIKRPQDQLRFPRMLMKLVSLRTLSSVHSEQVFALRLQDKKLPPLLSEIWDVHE
The assay is classed as functional, cell-based.

A short description of assay [9]: cells. The assay is classed as functional, cell-based.
The next assay addresses T3, Aminopeptidase N (Plasmodium falciparum FcB1/Columbia, UniProt O96935).
T3 sequence (O96935 whole entry): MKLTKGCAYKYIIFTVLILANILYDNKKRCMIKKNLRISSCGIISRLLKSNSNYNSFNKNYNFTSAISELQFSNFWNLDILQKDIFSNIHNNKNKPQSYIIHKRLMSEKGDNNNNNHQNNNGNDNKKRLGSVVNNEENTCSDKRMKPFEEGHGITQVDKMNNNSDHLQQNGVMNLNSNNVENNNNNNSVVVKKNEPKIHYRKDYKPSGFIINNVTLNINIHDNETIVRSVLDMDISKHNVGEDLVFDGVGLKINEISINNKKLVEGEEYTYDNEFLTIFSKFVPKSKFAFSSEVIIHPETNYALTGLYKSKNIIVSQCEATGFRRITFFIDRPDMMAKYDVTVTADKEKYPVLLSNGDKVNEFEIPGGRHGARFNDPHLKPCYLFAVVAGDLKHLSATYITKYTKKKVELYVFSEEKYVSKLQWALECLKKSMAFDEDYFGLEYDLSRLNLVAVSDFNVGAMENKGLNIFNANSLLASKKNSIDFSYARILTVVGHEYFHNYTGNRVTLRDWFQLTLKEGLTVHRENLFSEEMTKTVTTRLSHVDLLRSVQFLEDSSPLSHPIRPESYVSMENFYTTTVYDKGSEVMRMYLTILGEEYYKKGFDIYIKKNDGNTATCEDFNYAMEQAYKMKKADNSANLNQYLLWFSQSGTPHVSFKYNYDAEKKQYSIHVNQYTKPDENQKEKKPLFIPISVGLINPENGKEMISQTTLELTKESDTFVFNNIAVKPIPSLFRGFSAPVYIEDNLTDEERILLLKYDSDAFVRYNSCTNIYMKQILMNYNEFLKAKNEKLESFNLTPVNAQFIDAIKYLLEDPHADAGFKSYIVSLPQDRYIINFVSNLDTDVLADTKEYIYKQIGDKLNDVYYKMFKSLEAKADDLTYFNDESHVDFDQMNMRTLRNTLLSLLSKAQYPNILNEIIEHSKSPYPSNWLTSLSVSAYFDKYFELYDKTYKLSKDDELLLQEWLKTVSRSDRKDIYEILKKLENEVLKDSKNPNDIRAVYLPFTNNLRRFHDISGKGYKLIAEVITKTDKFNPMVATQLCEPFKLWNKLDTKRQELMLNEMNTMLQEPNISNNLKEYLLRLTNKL
Briefly: malaria alanyl aminopeptidase activity blockers – biochemical, fluorogenic H-Leu-NHMec substrate, 1536-well (AID 1445). More on the design: species or system Plasmodium falciparum 3D7, 3D7.

The nature of assay [10]: cells. It is filed as functional, cell-based. The source holds these as a separate data set.
Assay [11] concerns the target T4, Trace amine-associated receptor 1 (Homo sapiens, UniProt Q96RJ0).
T4 sequence (Q96RJ0 whole entry): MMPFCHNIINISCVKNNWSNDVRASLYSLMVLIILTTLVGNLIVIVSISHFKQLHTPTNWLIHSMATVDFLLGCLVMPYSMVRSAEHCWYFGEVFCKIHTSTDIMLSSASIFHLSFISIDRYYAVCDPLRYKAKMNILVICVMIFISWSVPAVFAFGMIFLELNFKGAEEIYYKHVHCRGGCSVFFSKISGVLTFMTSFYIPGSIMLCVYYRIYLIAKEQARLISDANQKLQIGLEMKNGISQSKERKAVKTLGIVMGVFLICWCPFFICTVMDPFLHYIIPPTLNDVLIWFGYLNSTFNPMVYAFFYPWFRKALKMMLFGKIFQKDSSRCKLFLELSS
Briefly: Fluorescence-based cell-based high throughput dose response assay to identify agonists of the human trace amine associated receptor 1 (TAAR1). The assay is classed as functional.

The nature of assay [12]: cells. The assay is classed as functional, cell-based. The source holds these as a separate data set.
A short description of assay [13]: cells. It is filed as functional, cell-based. This is another data set of the same source.
Assay [14] addresses T4, Trace amine-associated receptor 1. Briefly: Counterscreen for agonists of the human trace amine associated receptor 1 (hTAAR1): Fluorescence-based cell-based high throughput dose response assay to identify hTAAR1 agonist that also desensitize TAAR1 receptor response. It is filed as functional.

Where “and” joins values, the source holds several entries; their conditions need not be identical. Identical values can stand only once. Counter-ions that a name gives are not always drawn. Calls of active or inactive are those of the source.

Sequence of Induced myeloid leukemia cell differentiation protein Mcl-1 (Q07820 whole entry): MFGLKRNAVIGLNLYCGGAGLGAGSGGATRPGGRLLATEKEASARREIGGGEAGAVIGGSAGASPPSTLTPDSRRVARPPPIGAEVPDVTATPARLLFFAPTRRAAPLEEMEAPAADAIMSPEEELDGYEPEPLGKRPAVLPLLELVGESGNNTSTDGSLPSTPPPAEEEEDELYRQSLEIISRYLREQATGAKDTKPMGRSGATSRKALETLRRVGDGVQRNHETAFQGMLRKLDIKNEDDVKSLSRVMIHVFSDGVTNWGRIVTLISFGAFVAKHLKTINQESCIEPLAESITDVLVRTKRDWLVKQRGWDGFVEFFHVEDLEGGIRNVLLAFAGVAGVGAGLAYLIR

For orientation: Ki means the dissociation constant of the complex between target and ligand, obtained from inhibition or displacement. With `COc1ccc(C)cc1NC(=O)C1CCCCC1C(=O)O` (centres undefined), at fMet-Leu-Phe receptor, the Ki is > 66.7 µM (inactive).
In general, IC50 refers to the concentration at which inhibition is half-maximal. In the case of `CN=C(S)NNC(=O)c1oc2nc(-c3ccccc3)cc(-c3ccco3)c2c1N`, the IC50 at Albumin is > 94.1 µM (inactive).
As a reminder, the AC50 is the concentration at which the activity in the assay is half-maximal. Regarding `CCOC(=O)Cc1cc(O)n2nc(C)c(-c3ccccc3)c2n1`, the AC50 at Cytochrome P450 2C9 is 39.8 µM (inconclusive); on Cytochrome P450 2C19, 22.4 µM (inconclusive). For the same molecule, at fMet-Leu-Phe receptor, the Ki is 36.8 µM (inactive).
The term EC50 denotes the concentration giving half of the maximal effect. In the case of `Cc1cc(/C=N/n2c(COc3ccccc3C)nc3ccccc3c2=O)c(O)c([N+](=O)[O-])c1`, the half-maximal inhibitory concentration (IC50) is 4.58 µM (active) in assay [1] and > 94.1 µM (inactive) on Albumin. For the same molecule, the half-maximal effective concentration (EC50) is 1.37 µM (active) in [2], 6.51 µM (active) in assay [3], 1 µM (active) in assay [4] and > 150 µM (inactive) in assay [5]. Also, the AC50 in the assay on INS1 is 2.99 µM (active).
Take `CN1C(=O)c2cc(NC(=O)NC3CCCC3)ccc2OC[C@H]2O[C@@H](CC(=O)NC3CCC3)CC[C@@H]21`: the AC50 in the assay on HeLa is 25.9 µM (active).
Consider `C[C@H]1CN([C@@H](C)CO)C(=O)c2cccc(NC(=O)c3ccncc3)c2O[C@@H]1CN(C)Cc1cc(Cl)ccc1Cl`, for which, in assay [6], the AC50 is 0.0573 µM (active).
Consider `CC(C)(C)[S+]([O-])N1Cc2cc(C(=O)NCc3ccc4c(c3)OCO4)nc(-c3cccc(C#CCC4CCCC4)c3)c2[C@@H]1CCO` (some centres undefined), for which the AC50 in assay [6] was 0.883 µM (active); in assay [7], 3.54 µM (active).
In the case of `C=CCN1C(=O)[C@@H](CC(=O)N2CCSCC2)[C@]2(C(=O)OC)CCCCC=C12`, the EC50 in assay [8] is > 67.5 µM (inactive).
Consider `OC[C@H]1[C@H](c2ccc(Br)cc2)[C@@H]2CN(Cc3ccccn3)CCCCN12`, for which, in assay [6], the AC50 is 3.71 µM (active).
Regarding `O=C(N/N=C/c1cc(Br)ccc1O)c1cccc(N2CCCC2=O)c1`, the EC50 was 2.33 µM (active) in assay [2], 7.74 µM (active) in “cells [9]”, 15.4 µM (inconclusive) in assay [5] and > 350 µM (not active) in “cells [10]”. Further, the IC50 at Albumin was > 94.1 µM (inactive); on Aminopeptidase N, 38.3 µM (active).
Regarding `Cc1cc2ncc(-c3ccccc3)nc2cc1C` [AG1295], the EC50 in [8] was > 67.5 µM (inactive).
For `CC(N)Cc1ccc(O)cc1` (centres undefined) [HYDROXYAMPHETAMINE HYDROBROMIDE], the EC50 was 1.71 µM (active) and 1.18 µM (active) in assay [11]; > 29.9 µM (inactive) in “cells [13]”. Moreover, the IC50 in “cells [12]” was > 29.9 µM (inactive); in assay [14], 11.8 µM (inactive) and 5.84 µM (active).

Values taken from ChEMBL document CHEMBL1201862, “PubChem BioAssay data set” (2004).
